Results from PubChem BioAssay (NCI).
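Following 48 hours of exposure in 96-well plates, responses at five concentrations were used to interpolate endpoints linearly. Abbreviation: GI50, concentration required for 50% inhibition of growth. Definition used: TGI = concentration required for complete inhibition of growth.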

Tests used:
Assay in all cases: inhibition of tumour cell growth, NCI panel, 48 h
[1] = test system: A498 renal
[2] = test system: 786-0 renal
[3] = test system: LOX IMVI melanoma
[4] = test system: A549 NSCLC
[5] = test system: OVCAR-5 ovarian
[6] = test system: IGROV1 ovarian
[7] = test system: BT-549 breast
[8] = test system: HL-60(TB) leukemia
[9] = test system: MDA-MB-435
[10] = test system: T-47D breast
[11] = test system: COLO 205 colon
[12] = test system: SF-268 CNS
[13] = test system: NCI-H460 lung
[14] = test system: CCRF-CEM leukemia
[15] = test system: NCI/ADR-RES ovarian
[16] = test system: SF-295 CNS
[17] = test system: HOP-92 NSCLC
[18] = test system: HCT-116 colon
[19] = test system: UACC-257 melanoma
[20] = test system: HCT-15 colon
[21] = test system: OVCAR-3 ovarian
[22] = test system: RXF 393 renal
[23] = test system: OVCAR-8 ovarian
[24] = test system: SK-MEL-2 melanoma
[25] = test system: M14 melanoma
[26] = test system: TK-10 renal
[27] = test system: K-562 leukemia
[28] = test system: OVCAR-4 ovarian
[29] = test system: SK-OV-3 ovarian
[30] = test system: UACC-62 melanoma
[31] = test system: RPMI-8226 leukemia
[32] = test system: MOLT-4 leukemia
[33] = test system: EKVX NSCLC
[34] = test system: SK-MEL-28 melanoma
[35] = test system: NCI-H522 lung
[36] = test system: MALME-3M melanoma
[37] = test system: HT29 colon
[38] = test system: SNB-75 CNS
[39] = test system: UO-31 renal
[40] = test system: HCC-2998 colon
[41] = test system: PC-3 prostate
[42] = test system: SF-539 CNS
[43] = test system: ACHN renal
[44] = test system: SN12C renal
[45] = test system: SR leukemia
[46] = test system: MDA-MB-231 breast
[47] = test system: NCI-H23 lung
[48] = test system: SK-MEL-5 melanoma
[49] = test system: NCI-H226 lung
[50] = test system: U251 CNS
[51] = test system: DU-145 prostate
[52] = test system: SNB-19 CNS
[53] = test system: KM12 colon
[54] = test system: HOP-62 NSCLC
[55] = test system: CAKI-1 renal
[56] = test system: SW-620 colon
[57] = test system: MCF7 breast
[58] = test system: HS 578T breast

Work on `CN(C)CCOc1cccc(NC2=C(Cl)C(=O)C(Nc3cccc(OCCN(C)C)c3)=C(Cl)C2=O)c1` yielded a GI50 [1] of 1.64 µM, a TGI [1] of 3.26 µM and a GI50 [2] of 0.49 µM. For the same compound, the TGI [2] was 1.12 µM, the GI50 [3] was 0.191 µM and the TGI [3] was 0.407 µM. For the same compound, the GI50 [4] was 2.19 µM, the TGI [4] was 3.98 µM and the GI50 [5] was 1.84 µM. It also gave a TGI [5] of 3.4 µM, a GI50 [6] of 0.235 µM and a TGI [6] of 0.663 µM. The GI50 [7] was 1.72 µM, the TGI [7] was 3.12 µM and the GI50 [8] was 0.751 µM. It also gave a TGI [8] of 2.61 µM, a GI50 [9] of 0.666 µM and a TGI [9] of 1.9 µM. For the same compound, the GI50 [10] was 0.189 µM, the TGI [10] was 0.453 µM and the GI50 [11] was 0.258 µM. The TGI [11] was 0.684 µM, the GI50 [12] was 1.7 µM and the TGI [12] was 3.48 µM. For the same compound, the GI50 [13] was 1.57 µM, the TGI [13] was 3.27 µM and the GI50 [14] was 0.256 µM. For the same compound, the TGI [14] was 0.932 µM, the GI50 [15] was 2.44 µM and the TGI [15] was > 26.4 µM. It also gave a GI50 [16] of 2.36 µM, a TGI [16] of 5.92 µM and a GI50 [17] of 0.184 µM. It also gave a TGI [17] of 0.408 µM, a GI50 [18] of 0.18 µM and a TGI [18] of 0.385 µM. For the same compound, the GI50 [19] was 0.765 µM, the TGI [19] was 2.03 µM and the GI50 [20] was 0.35 µM. It also gave a TGI [20] of 1.4 µM, a GI50 [21] of 0.18 µM and a TGI [21] of 0.334 µM. For the same compound, the GI50 [22] was 0.358 µM, the TGI [22] was 1.21 µM and the GI50 [23] was 1.13 µM. For the same compound, the TGI [23] was 2.91 µM, the GI50 [24] was 1.11 µM and the TGI [24] was 2.61 µM. It also gave a GI50 [25] of 1.14 µM, a TGI [25] of 2.53 µM and a GI50 [26] of 0.234 µM. The TGI [26] was 0.513 µM, the GI50 [27] was 0.162 µM and the TGI [27] was 0.608 µM. The GI50 [28] was 0.17 µM, the TGI [28] was 0.329 µM and the GI50 [29] was 11.3 µM. For the same compound, the TGI [29] was 23.4 µM, the GI50 [30] was 1.2 µM and the TGI [30] was 2.57 µM. For the same compound, the GI50 [31] was 0.306 µM, the TGI [31] was 1.03 µM and the GI50 [32] was 0.255 µM. The TGI [32] was 0.844 µM, the GI50 [33] was 0.794 µM and the TGI [33] was 2.13 µM. The GI50 [34] was 1.03 µM, the TGI [34] was 2.49 µM and the GI50 [35] was 0.194 µM. The TGI [35] was 0.46 µM, the GI50 [36] was 0.275 µM and the TGI [36] was 0.827 µM. The GI50 [37] was 0.258 µM, the TGI [37] was 0.666 µM and the GI50 [38] was 1.93 µM. It also gave a TGI [38] of 4.87 µM, a GI50 [39] of 0.498 µM and a TGI [39] of 0.979 µM. For the same compound, the GI50 [40] was 1.44 µM, the TGI [40] was 3 µM and the GI50 [41] was 1.52 µM. The TGI [41] was 3.25 µM, the GI50 [42] was 1.62 µM and the TGI [42] was 2.98 µM. For the same compound, the GI50 [43] was 0.219 µM, the TGI [43] was 0.465 µM and the GI50 [44] was 0.427 µM. The TGI [44] was 0.886 µM, the GI50 [45] was 0.218 µM and the TGI [45] was 0.783 µM. For the same compound, the GI50 [46] was 0.54 µM, the TGI [46] was 1.17 µM and the GI50 [47] was 0.323 µM. For the same compound, the TGI [47] was 1.35 µM, the GI50 [48] was 0.792 µM and the TGI [48] was 2.04 µM. The GI50 [49] was 1.81 µM, the TGI [49] was 3.93 µM and the GI50 [50] was 1.47 µM. It also gave a TGI [50] of 2.93 µM, a GI50 [51] of 0.366 µM and a TGI [51] of 1.27 µM. For the same compound, the GI50 [52] was 1.72 µM, the TGI [52] was 3.31 µM and the GI50 [53] was 1.33 µM. The TGI [53] was 2.92 µM, the GI50 [54] was 2.1 µM and the TGI [54] was 4.22 µM. For the same compound, the GI50 [55] was 1.44 µM, the TGI [55] was 2.81 µM and the GI50 [56] was 0.207 µM. The TGI [56] was 0.438 µM.
In the case of `O=C1C=CC(=O)N1CCCCCCCCCCN1C(=O)C=CC1=O`, the GI50 [1] is reported as 20 µM, the TGI [1] is reported as 49.7 µM and the GI50 [2] is reported as 16.2 µM. The TGI [2] was 30.4 µM, the GI50 [3] was 11.3 µM and the TGI [3] was 24.4 µM. It also gave a GI50 [4] of 18.2 µM, a TGI [4] of 41.5 µM and a GI50 [5] of 17.4 µM. For the same compound, the TGI [5] was 31.6 µM, the GI50 [57] was 5.62 µM and the TGI [57] was 24.2 µM. It also gave a GI50 [6] of 7.89 µM, a TGI [6] of 24.7 µM and a GI50 [8] of 8.72 µM. It also gave a TGI [8] of 31.4 µM, a GI50 [9] of 13.2 µM and a TGI [9] of 28.1 µM. The GI50 [10] was 15.3 µM, the TGI [10] was 40.7 µM and the GI50 [11] was 2.15 µM. It also gave a TGI [11] of 5.62 µM, a GI50 [12] of 15.8 µM and a TGI [12] of 30.4 µM. The GI50 [13] was 33.3 µM, the TGI [13] was > 100 µM and the GI50 [14] was 4.05 µM. The TGI [14] was > 100 µM, the GI50 [15] was 21.2 µM and the TGI [15] was 55.9 µM. The GI50 [16] was 23.5 µM, the TGI [16] was 74.4 µM and the GI50 [17] was 20.8 µM. It also gave a TGI [17] of 37 µM, a GI50 [18] of 3.6 µM and a TGI [18] of 12.9 µM. For the same compound, the GI50 [19] was 11.5 µM, the TGI [19] was 24.8 µM and the GI50 [20] was 10.3 µM. It also gave a TGI [20] of 25.7 µM, a GI50 [21] of 4.1 µM and a TGI [21] of 15.1 µM. It also gave a GI50 [22] of 3.13 µM, a TGI [22] of 11.3 µM and a GI50 [23] of 13.9 µM. The TGI [23] was 44 µM, the GI50 [25] was 6.9 µM and the TGI [25] was 20 µM. The GI50 [26] was 22.9 µM, the TGI [26] was 69 µM and the GI50 [27] was 7.63 µM. It also gave a TGI [27] of 67.9 µM, a GI50 [28] of 8.38 µM and a TGI [28] of 24.8 µM. For the same compound, the GI50 [29] was > 100 µM, the TGI [29] was > 100 µM and the GI50 [30] was 14.8 µM. For the same compound, the TGI [30] was 28.2 µM, the GI50 [31] was 6.72 µM and the TGI [31] was 57.7 µM. The GI50 [32] was 8.62 µM, the TGI [32] was 48.6 µM and the GI50 [33] was 19.4 µM. It also gave a TGI [33] of 39.2 µM, a GI50 [34] of 14.8 µM and a TGI [34] of 30.9 µM. It also gave a GI50 [35] of 1.6 µM, a TGI [35] of 3.41 µM and a GI50 [36] of 2.05 µM. It also gave a TGI [36] of 6.49 µM, a GI50 [37] of 4.67 µM and a TGI [37] of 26.7 µM. The GI50 [38] was 11.5 µM, the TGI [38] was 24.4 µM and the GI50 [39] was 4.92 µM. For the same compound, the TGI [39] was 19.6 µM, the GI50 [40] was 26 µM and the TGI [40] was 71.2 µM. The GI50 [41] was 18.1 µM, the TGI [41] was 36.5 µM and the GI50 [42] was 16.4 µM. For the same compound, the TGI [42] was 30.6 µM, the GI50 [43] was 4.85 µM and the TGI [43] was 16.8 µM. The GI50 [44] was 15.1 µM, the TGI [44] was 29.5 µM and the GI50 [45] was 6.88 µM. The TGI [45] was 41.2 µM, the GI50 [46] was 15.7 µM and the TGI [46] was 29.5 µM. The GI50 [47] was 15.6 µM, the TGI [47] was 31.6 µM and the GI50 [48] was 22.2 µM. For the same compound, the TGI [48] was 56.1 µM, the GI50 [49] was 17.1 µM and the TGI [49] was 34.4 µM. It also gave a GI50 [50] of 17 µM, a TGI [50] of 37.8 µM and a GI50 [51] of 15.8 µM. The TGI [51] was 29.2 µM, the GI50 [52] was 37.6 µM and the TGI [52] was > 100 µM. The GI50 [53] was 15.4 µM, the TGI [53] was 30.3 µM and the GI50 [54] was 16.2 µM. The TGI [54] was 31.3 µM, the GI50 [58] was 16.3 µM and the TGI [58] was 56.9 µM. It also gave a GI50 [55] of 9.19 µM, a TGI [55] of 25.2 µM and a GI50 [56] of 2.42 µM. The TGI [56] was 6.09 µM.
